Measurements: paper PMC9186362, “Design and biological evaluation of substituted 5,7-dihydro-6H-indolo[2,3-c]quinolin-6-one as novel selective Haspin inhibitors” (Journal of Enzyme Inhibition and Medicinal Chemistry, 2022)

How the values were obtained:
Test in all cases: LanthaScreen Binding - Eu-anti-GST
Settings in all cases: read-out: Percentage of inhibition
[1] = biological target: TESK1 (Homo sapiens, UniProt Q15569)
Method in brief: (§1)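 Each panel kinase received the compound at a fixed 1 μM; inhibition percentages were recorded, with ≥80% used as the cut-off for hits.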

[2] = biological target: T1, MAP4K1 (HPK1) (Homo sapiens, UniProt Q92918)
T1 construct: purchased Life Technologies (SelectScreen service)
T1 sequence (Q92918 whole entry): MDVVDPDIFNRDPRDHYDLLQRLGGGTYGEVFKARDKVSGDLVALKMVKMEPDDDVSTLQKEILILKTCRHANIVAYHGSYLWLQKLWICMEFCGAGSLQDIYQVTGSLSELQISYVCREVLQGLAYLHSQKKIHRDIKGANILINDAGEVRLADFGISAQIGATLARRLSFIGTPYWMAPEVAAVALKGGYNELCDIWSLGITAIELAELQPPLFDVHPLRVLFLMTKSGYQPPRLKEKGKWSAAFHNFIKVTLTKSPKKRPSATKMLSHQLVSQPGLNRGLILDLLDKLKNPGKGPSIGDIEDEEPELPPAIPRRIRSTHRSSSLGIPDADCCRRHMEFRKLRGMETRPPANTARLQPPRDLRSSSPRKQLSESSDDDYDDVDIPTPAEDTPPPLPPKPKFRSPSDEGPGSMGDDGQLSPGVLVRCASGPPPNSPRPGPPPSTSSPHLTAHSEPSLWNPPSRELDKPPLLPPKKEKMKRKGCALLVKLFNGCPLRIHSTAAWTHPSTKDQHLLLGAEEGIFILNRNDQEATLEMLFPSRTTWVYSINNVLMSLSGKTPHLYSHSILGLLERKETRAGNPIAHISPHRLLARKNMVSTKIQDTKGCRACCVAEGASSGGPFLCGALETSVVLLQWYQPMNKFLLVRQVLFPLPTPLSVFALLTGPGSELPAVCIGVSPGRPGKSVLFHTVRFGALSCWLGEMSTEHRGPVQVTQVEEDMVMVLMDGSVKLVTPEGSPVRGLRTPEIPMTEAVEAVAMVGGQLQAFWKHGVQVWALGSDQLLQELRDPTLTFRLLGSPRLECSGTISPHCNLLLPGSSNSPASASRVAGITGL
Method in brief: as §1

[3] = biological target: T2, BRSK2 (Homo sapiens, UniProt Q8IWQ3)
T2 construct: purchased Life Technologies (SelectScreen Whole Panel service)
T2 sequence (Q8IWQ3 whole entry): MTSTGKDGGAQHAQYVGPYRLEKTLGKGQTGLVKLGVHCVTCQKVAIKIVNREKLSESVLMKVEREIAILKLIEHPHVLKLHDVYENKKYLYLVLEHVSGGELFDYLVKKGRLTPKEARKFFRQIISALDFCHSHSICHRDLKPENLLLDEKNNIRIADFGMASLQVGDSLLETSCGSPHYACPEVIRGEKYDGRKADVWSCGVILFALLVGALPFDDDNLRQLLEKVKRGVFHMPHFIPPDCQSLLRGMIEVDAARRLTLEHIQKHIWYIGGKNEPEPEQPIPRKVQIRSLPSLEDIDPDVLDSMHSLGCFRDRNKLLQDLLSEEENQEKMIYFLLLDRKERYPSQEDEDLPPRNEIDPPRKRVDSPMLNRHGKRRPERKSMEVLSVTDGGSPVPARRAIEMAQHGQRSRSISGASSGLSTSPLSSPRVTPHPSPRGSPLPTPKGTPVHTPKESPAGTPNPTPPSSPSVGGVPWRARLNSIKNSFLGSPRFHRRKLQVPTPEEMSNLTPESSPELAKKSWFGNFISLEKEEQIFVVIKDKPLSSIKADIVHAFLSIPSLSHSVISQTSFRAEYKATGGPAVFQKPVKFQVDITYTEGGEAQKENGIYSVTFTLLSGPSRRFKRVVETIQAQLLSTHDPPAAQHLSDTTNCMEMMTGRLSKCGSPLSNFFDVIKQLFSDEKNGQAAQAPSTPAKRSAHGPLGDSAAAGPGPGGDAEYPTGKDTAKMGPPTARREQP
Method in brief: as §1

[4] = biological target: MET D1228H (Homo sapiens, UniProt P08581, D1228H)
Method in brief: as §1

[5] = biological target: T3, STK38L (NDR2) (Homo sapiens, UniProt Q9Y2H1)
T3 construct: purchased Life Technologies (SelectScreen)
Method in brief: as §1

[6] = biological target: FGFR3 K650M (Homo sapiens, UniProt P22607, K650M)
FGFR3 K650M, sequence (P22607 23-806 K650M): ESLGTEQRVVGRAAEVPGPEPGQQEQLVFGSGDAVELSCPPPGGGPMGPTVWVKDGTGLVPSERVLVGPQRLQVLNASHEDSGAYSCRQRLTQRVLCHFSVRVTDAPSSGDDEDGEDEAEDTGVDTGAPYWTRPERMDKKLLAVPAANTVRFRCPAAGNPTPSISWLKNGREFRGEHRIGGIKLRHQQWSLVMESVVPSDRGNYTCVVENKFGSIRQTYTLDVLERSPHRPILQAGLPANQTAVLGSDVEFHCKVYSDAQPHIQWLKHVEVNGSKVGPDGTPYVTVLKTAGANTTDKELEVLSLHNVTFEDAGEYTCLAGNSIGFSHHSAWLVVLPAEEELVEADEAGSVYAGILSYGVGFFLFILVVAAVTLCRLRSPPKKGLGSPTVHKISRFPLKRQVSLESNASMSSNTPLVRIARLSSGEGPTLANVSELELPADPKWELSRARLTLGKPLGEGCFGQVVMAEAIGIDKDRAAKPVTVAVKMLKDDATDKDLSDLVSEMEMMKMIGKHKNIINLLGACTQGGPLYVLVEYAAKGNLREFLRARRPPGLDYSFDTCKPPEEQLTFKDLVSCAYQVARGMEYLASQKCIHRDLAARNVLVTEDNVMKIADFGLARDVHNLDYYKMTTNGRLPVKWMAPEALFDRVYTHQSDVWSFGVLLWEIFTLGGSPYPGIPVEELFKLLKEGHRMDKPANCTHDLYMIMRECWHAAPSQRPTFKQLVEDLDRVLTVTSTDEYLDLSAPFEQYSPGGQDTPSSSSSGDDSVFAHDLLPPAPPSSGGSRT
Method in brief: as §1

[7] = biological target: T4, EPHA7 (Homo sapiens, UniProt Q15375)
T4 construct: purchased Life Technologies (SelectScreen service)
Method in brief: as §1

[8] = biological target: T5, TGFBR2 (Homo sapiens, UniProt P37173)
T5 construct: purchased Life Technologies (SelectScreen Whole Panel)
Method in brief: as §1

[9] = biological target: T6, ANKK1 (Homo sapiens, UniProt Q8NFD2)
T6 construct: purchased Life Technologies (SelectScreen service)
Method in brief: as §1

[10] = biological target: T7, NLK (Homo sapiens, UniProt Q9UBE8)
T7 construct: purchased Life Technologies (SelectScreen Whole Panel service)
T7 sequence (Q9UBE8 whole entry): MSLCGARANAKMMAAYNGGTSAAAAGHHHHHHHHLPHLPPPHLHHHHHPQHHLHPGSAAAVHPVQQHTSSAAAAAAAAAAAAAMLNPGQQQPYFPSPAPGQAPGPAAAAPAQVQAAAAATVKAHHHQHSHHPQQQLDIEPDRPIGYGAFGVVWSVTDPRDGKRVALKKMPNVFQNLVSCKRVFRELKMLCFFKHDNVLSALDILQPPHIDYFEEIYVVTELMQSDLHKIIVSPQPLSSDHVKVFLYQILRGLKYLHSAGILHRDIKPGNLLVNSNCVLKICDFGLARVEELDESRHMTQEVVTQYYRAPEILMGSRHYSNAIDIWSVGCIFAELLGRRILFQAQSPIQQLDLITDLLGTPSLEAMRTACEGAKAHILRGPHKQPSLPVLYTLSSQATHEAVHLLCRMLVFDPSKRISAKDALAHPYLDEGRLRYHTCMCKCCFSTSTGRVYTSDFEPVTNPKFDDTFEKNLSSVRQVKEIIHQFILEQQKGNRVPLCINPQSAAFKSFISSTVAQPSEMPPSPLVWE
Method in brief: as §1

[11] = biological target: T8, NEK8 (Homo sapiens, UniProt Q86SG6)
T8 construct: purchased Life Technologies (SelectScreen Whole Panel service)
Method in brief: as §1

[12] = biological target: T9, DDR2 N456S (Homo sapiens, UniProt Q16832, N456S)
T9 construct: purchased Life Technologies
Method in brief: as §1

[13] = biological target: T10, ERN1 (Homo sapiens, UniProt O75460)
T10 construct: purchased Life Technologies (SelectScreen Whole Panel service)
Method in brief: as §1

[14] = biological target: KIT T670E (Homo sapiens, UniProt P10721, T670E)
Method in brief: as §1

[15] = biological target: T11, PLK4 (Homo sapiens, UniProt O00444)
T11 construct: purchased Life Technologies (SelectScreen Whole Panel)
T11 sequence (O00444 whole entry): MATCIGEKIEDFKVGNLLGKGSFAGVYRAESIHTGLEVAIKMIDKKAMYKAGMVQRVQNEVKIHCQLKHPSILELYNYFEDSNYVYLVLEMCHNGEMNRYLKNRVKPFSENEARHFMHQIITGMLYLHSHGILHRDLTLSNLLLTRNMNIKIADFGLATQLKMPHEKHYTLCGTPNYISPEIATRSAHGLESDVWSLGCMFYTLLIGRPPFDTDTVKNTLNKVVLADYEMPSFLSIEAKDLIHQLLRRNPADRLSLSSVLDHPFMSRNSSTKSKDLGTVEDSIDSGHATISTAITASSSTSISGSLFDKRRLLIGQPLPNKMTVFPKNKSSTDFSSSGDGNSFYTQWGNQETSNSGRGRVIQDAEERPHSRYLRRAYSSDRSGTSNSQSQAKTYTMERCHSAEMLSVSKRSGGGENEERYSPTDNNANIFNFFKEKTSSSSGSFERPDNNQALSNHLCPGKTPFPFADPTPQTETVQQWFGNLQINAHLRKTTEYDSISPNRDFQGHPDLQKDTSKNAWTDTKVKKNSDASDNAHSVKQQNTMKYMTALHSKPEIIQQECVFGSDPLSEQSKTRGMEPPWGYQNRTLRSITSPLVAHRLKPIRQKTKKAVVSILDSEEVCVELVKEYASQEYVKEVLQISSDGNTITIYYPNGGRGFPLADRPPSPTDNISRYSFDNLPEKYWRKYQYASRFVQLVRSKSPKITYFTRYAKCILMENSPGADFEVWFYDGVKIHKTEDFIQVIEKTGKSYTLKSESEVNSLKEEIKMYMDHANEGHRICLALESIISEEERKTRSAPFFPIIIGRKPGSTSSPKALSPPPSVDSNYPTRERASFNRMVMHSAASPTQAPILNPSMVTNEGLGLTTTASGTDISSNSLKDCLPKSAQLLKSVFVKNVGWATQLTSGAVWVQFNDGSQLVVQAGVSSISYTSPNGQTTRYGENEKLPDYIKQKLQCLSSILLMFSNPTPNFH
Method in brief: as §1

[16] = biological target: T12, ACVR2A (Homo sapiens, UniProt P27037)
T12 construct: purchased Life Technologies (SelectScreen)
Method in brief: as §1

[17] = biological target: T13, MASTL (Homo sapiens, UniProt Q96GX5)
T13 construct: purchased Life Technologies (SelectScreen Whole Panel)
Method in brief: as §1

[18] = biological target: MAP4K3 (GLK) (Homo sapiens, UniProt Q8IVH8)
MAP4K3 (GLK), sequence (Q8IVH8 whole entry): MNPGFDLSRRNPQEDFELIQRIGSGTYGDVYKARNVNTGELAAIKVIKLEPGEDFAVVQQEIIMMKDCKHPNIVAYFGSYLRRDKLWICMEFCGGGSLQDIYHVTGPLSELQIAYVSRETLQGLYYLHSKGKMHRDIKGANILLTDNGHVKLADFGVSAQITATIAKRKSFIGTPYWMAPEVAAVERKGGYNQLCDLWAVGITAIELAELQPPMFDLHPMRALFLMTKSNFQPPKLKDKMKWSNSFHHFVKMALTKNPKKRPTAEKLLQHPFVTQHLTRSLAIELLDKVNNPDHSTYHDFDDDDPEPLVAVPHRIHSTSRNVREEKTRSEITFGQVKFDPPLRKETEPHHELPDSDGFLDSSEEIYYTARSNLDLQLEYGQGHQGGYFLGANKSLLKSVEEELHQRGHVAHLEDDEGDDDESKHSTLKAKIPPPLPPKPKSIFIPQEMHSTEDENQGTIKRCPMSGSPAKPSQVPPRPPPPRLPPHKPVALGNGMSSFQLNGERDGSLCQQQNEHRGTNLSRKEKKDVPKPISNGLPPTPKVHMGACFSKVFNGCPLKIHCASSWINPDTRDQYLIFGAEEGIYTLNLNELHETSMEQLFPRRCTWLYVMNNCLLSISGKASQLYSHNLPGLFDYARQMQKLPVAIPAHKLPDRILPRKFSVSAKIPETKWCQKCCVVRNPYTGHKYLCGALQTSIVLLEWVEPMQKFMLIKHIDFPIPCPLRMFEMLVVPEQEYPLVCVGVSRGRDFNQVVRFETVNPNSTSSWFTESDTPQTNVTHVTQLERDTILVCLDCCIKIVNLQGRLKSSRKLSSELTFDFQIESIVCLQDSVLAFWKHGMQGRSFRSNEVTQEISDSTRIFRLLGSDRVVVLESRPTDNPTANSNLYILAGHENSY
Method in brief: as §1

[19] = biological target: T14, EGFR (ErbB1) d747-749 A750P (Homo sapiens, UniProt P00533, A750P/DEL747-749)
T14 construct: purchased Life Technologies
Method in brief: as §1

[20] = biological target: T15, RET M918T (Homo sapiens, UniProt P07949, M918T)
T15 construct: purchased Life Technologies
Method in brief: as §1

[21] = biological target: TLK1 (Homo sapiens, UniProt Q9UKI8)
Method in brief: as §1

[22] = biological target: T16, ABL1 Q252H (Homo sapiens, UniProt P00519, Q252H)
T16 construct: purchased Life Technologies (SelectScreen service)
Method in brief: as §1

[23] = biological target: T17, CDK11/cyclin C (Homo sapiens, UniProt Q9BWU1)
T17 construct: purchased Life Technologies
Method in brief: as §1

[24] = biological target: T18, CDK2/cyclin A1 (Homo sapiens, UniProt P24941)
T18 construct: purchased Life Technologies (SelectScreen Whole Panel service)
Method in brief: as §1

[25] = biological target: DMPK (Homo sapiens, UniProt Q09013)
Method in brief: as §1

[26] = biological target: T19, FYN A (Homo sapiens, UniProt P06241)
T19 construct: purchased Life Technologies (SelectScreen Whole Panel service)
Method in brief: as §1

[27] = biological target: T20, TAOK3 (JIK) (Homo sapiens, UniProt Q9H2K8)
T20 construct: purchased Life Technologies (SelectScreen service)
Method in brief: as §1

[28] = biological target: T21, KIT Y823D (Homo sapiens, UniProt P10721, Y823D)
T21 construct: purchased Life Technologies
Method in brief: as §1

[29] = biological target: T22, EGFR (ErbB1) d746-750 (Homo sapiens, UniProt P00533, DEL746-750)
T22 construct: purchased Life Technologies
Method in brief: as §1

[30] = biological target: ACVR1 (ALK2) R206H (Homo sapiens, UniProt Q04771, R206H)
Method in brief: as §1

[31] = biological target: T23, MYLK4 (Homo sapiens, UniProt Q86YV6)
T23 construct: purchased Life Technologies (SelectScreen Whole Panel)
Method in brief: as §1

[32] = biological target: PKMYT1 (Homo sapiens, UniProt Q99640)
Method in brief: as §1

[33] = biological target: T24, ALK F1174L (Homo sapiens, UniProt Q9UM73, F1174L)
T24 construct: purchased Life Technologies
Method in brief: as §1

[34] = biological target: T25, ACVRL1 (ALK1) (Homo sapiens, UniProt P37023)
T25 construct: purchased Life Technologies (SelectScreen service)
Method in brief: as §1

[35] = biological target: T26, KIT N822K (Homo sapiens, UniProt P10721, N822K)
T26 construct: purchased Life Technologies (SelectScreen Whole Panel service)
Method in brief: as §1

[36] = biological target: WNK2 (Homo sapiens, UniProt Q9Y3S1)
Method in brief: as §1

[37] = biological target: T27, BMPR1B (ALK6) (Homo sapiens, UniProt O00238)
T27 construct: purchased Life Technologies (SelectScreen)
Method in brief: as §1

[38] = biological target: CDK5 (Inactive) (Homo sapiens, UniProt Q00535)
CDK5 (Inactive), sequence (Q00535 whole entry): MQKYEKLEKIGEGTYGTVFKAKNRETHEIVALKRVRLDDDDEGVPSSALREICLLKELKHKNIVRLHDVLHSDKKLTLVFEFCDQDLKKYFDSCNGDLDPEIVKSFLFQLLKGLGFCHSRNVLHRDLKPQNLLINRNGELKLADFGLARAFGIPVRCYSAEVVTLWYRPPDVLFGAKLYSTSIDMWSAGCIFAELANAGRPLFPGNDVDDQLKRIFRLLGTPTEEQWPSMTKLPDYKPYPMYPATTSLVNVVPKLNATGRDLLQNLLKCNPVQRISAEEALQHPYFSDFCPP
Method in brief: as §1

[39] = biological target: T28, BRAF V599E (Homo sapiens, UniProt P15056, V600E)
T28 construct: purchased Life Technologies
Method in brief: as §1

In the case of `COc1ccc2[nH]c3c(=O)[nH]c4ccc(O)cc4c3c2c1` [Compound 55, 2-Hydroxy-10-methoxy-5,7-dihydro-6H-indolo[2,3-c]quinolin-6-one], the inhibition at 1 µM [1] is reported as 15%, the inhibition at 1 µM [2] is reported as 81% and the inhibition at 1 µM [3] is reported as 15%. The inhibition at 1 µM [4] was 14%, the inhibition at 1 µM [5] was 8% and the inhibition at 1 µM [6] was 67%. The inhibition at 1 µM [7] was 23%, the inhibition at 1 µM [8] was 102% and the inhibition at 1 µM [9] was 90%. It also gave an inhibition at 1 µM [10] of 15%, an inhibition at 1 µM [11] of 16% and an inhibition at 1 µM [12] of 41%. It also gave an inhibition at 1 µM [13] of 16%, an inhibition at 1 µM [14] of 63% and an inhibition at 1 µM [15] of 50%. It also gave an inhibition at 1 µM [16] of 8%, an inhibition at 1 µM [17] of 50% and an inhibition at 1 µM [18] of 59%. For the same compound, the inhibition at 1 µM [19] was 34%, the inhibition at 1 µM [20] was 94% and the inhibition at 1 µM [21] was 68%. It also gave an inhibition at 1 µM [22] of 77%, an inhibition at 1 µM [23] of 37% and an inhibition at 1 µM [24] of 43%. The inhibition at 1 µM [25] was 63%, the inhibition at 1 µM [26] was 45% and the inhibition at 1 µM [27] was 24%. For the same compound, the inhibition at 1 µM [28] was 30%, the inhibition at 1 µM [29] was 34% and the inhibition at 1 µM [30] was 14%. The inhibition at 1 µM [31] was 111%, the inhibition at 1 µM [32] was 14% and the inhibition at 1 µM [33] was 33%. It also gave an inhibition at 1 µM [34] of 25%, an inhibition at 1 µM [35] of 45% and an inhibition at 1 µM [36] of 14%. The inhibition at 1 µM [37] was 8%, the inhibition at 1 µM [38] was 21% and the inhibition at 1 µM [39] was 6%.
